Measurements: US20090253794A1, “Fibroblast Activator, Collagen Production Promoter, Collagen Contraction Promoter, Hyaluronic Acid Production Promoter, ATP Production Promoter, Melanin Formation Inhibitor, and Agent for External Application to the Skin” (priority 2005, published 2009)
Marks after values point to notes of the source that are not given here.

What was measured:
human skin fibroblasts = experiment: type I collagen gel contractability after glucose modification (glycated collagen); format: cell-based; conditions: one week, negative control = 1
Method: A collagen solution (collagen was used trade name I-AC, manufactured by KOUKEN Co., Ltd.) was prepared on ice according to the explanation insert attached to the product, and the collagen was gelled in 12 wells at 37° C. A glucose-6-phosphate solution was added to the final concentration of 100 mM, and the mixture was incubated at 37° C. for 7 days to allow glycation reaction. Unreacted glucose-6-phosphate was removed, 1×10^5 cells/ml of fibroblast was sown on the collagen gel, and cultured for 5 hr using a 0.25% FBS/DMEM medium. The medium was removed, and […] or 0.25% FBS/DMEM medium containing PBS as negative control was added. The gel was detached from the dish wall, and the level of contraction of the gelled collagen was examined. As a positive control, DMEM medium containing 10% FBS was used. The medium was changed every 2 days and, one week later, the medium was removed by suction. The diameter of the collagen gel was measured, the area was calculated, and the area ratio was compared to that of the negative control as 1.

normal human fibroblasts = experiment: hyaluronic acid production promoting effect and cell count; format: cell-based; conditions: 72 hr; for number of cells: negative control 5.4 × 10^5; for amount of hyaluronic acid produced: negative control = 100, n=3 average
Method: The number of cells of normal human fibroblasts was adjusted to 5.0×10^4 cells/mL in Medium 106S medium containing 2% FBS, and plated on a 24 well plate by 1.0 mL. The cell was cultured under an atmosphere of 95% (V/V) air-5% (V/V) carbon dioxide gas at 37° C. for 24 hr, and then Medium 106S medium (free of FBS) containing various concentrations of conagenin was added. After further culture for 72 hr, the culture supernatant was collected, and the concentration of hyaluronic acid released into the medium was measured by an inhibitory method (hyaluronic acid measurement kit, manufactured by SEIKAGAKU CORPORATION) utilizing a hyaluronic acid-binding protein. The method of operation was as indicated in the attached explanation insert. The results obtained using PBS as a negative control instead of conagenin was taken as 100 and the amount ratio of hyaluronic acid in the medium was calculated.

B16 melanoma cells = experiment: melanin formation suppression test, visual whitening and cell mass volume; format: cell-based, mouse; design: key to level of whitening: whitening high→++; whitening moderate→+; somewhat whitened→+−; no whitening→−; conditions: 5 days; for level of whitening: visual evaluation; for change in cell mass volume: visual, cytotoxicity index
Method: A melanin formation suppression test was performed as follows using mouse melanoma cells. First, 2×10^4 B16 melanoma cells were plated in a 35 mm diameter dish containing Eagle's minimum nutrition medium (3 ml) supplemented with 10% (v/v) fetal bovine serum, and cultured in a carbon dioxide incubator adjusted to 5% (v/v) carbon dioxide gas at 37° C. for about 24 hr. Then, pure water or a sample dissolved in pure water was added thereto to a final concentration of 0.1 mM, 1.0 mM or 10 mM. As a positive control, kojic acid (manufactured by Sigma Ltd.) was added to the same concentration. The cells were cultured for 5 more days under the same conditions, treated with trypsin, and centrifuged to collect the cells in a 1.5 ml Eppendorf. The level of whitening of the cells was visually evaluated, and indicated: whitening high→++; whitening moderate→+; somewhat whitened→+−; no whitening→−. Simultaneously, changes in the cell mass volume was visually evaluated and used as a cytotoxicity index.

[1] = tested on: mouse B16 melanoma strain; experiment: melanin formation amount after L-DOPA incubation (absorbance 495 nm), cells of Example 7; format: cell-based; conditions: FIG. 1; cells of Example 7 (0.1, 1.0, 10 mM); absorbance at 495 nm
Method: To the cells recovered in Example 7 was added 100 μl of cell suspension (PBS buffer containing Triton X-100 at 0.1% (v/v)). After thorough suspending, the suspension was stood at 4° C. for 1 hr. Thereto was added 100 μl of 10 mM L-DOPA (manufactured by Nacalai Tesque), and the mixture was incubated at 37° C. for 1 hr. Thereafter, the absorbance at 495 nm was measured by a plate reader (multiscanplus MKII, manufactured by Japan Flow Laboratory), and the melanin formation amount was measured.

[2] = tested on: normal human skin fibroblasts; experiment: ATP production promotion (ATP Lite luminescence); format: cell-based; conditions: for ATP amount (average ATP amount without addition of sample is 100): 48 hr, n = 4, mean ± standard deviation
Method: The evaluation was performed according to the following procedure. Normal human skin fibroblasts (manufactured by KURABO INDUSTRIES LTD.) were plated on a 96 well microplate at 2.0×10^4 cells per well. As the medium for plating, commercially available Medium 106S (manufactured by KURABO INDUSTRIES LTD.) containing 2% FBS, heparin 10 μg/ml and hydrocortisone 1 μg/ml was used. After culture for 24 hr, the medium was changed to a medium supplemented with various concentrations of conagenin, and the cells were cultured for 48 hr.
Then, the medium was removed from the 96 well microplate, and the amount of ATP synthesized in the cell was measured using a ATP measurement kit (ATP Lite, manufactured by PerkinElmer, Inc.). That is, the cells were washed with PBS(−), the cell membrane was lysed with a Lysis solution, a luminescence substrate was added, and the mixture was transferred to a black 96 well microplate (View Plate). The chemical luminescence was measured with a luminometer. The effect of the sample was evaluated using, as an index, the average ATP amount without addition of the sample as 100. For statistical processing, parametric multiple comparison (Dunnett Type) relative to control group without addition of the sample was performed, wherein a risk rate of less than 5% is indicated with *, a risk rate of less than 1% is indicated with ** and a risk rate of less than 0.1% is indicated with ***.

SMILES: C[C@@H]([C@@H](C)O)[C@@H](O)C(=O)N[C@@](C)(CO)C(=O)O [conagenin, (2S)—N-[(2R,3S,4R)2,4-dihydroxy-3-methyl-pentanoyl]-2-methylserine]
- collagen gel area ratio (human skin fibroblasts; 1 μM): 0.81
- collagen gel area ratio (human skin fibroblasts; 100 μM): 0.64
- collagen gel area ratio (human skin fibroblasts; 5 mM): 0.49
- number of cells (normal human fibroblasts; 1 μM): 5.3 × 10^5
- amount of hyaluronic acid produced (normal human fibroblasts; 1 μM): 108
- number of cells (normal human fibroblasts; 10 μM): 5.5 × 10^5
- amount of hyaluronic acid produced (normal human fibroblasts; 10 μM): 120
- number of cells (normal human fibroblasts; 100 μM): 5.3 × 10^5
- amount of hyaluronic acid produced (normal human fibroblasts; 100 μM): 132
- number of cells (normal human fibroblasts; 1 mM): 5.1 × 10^5
- amount of hyaluronic acid produced (normal human fibroblasts; 1 mM): 147
- number of cells (normal human fibroblasts; 5 mM): 4.0 × 10^5
- amount of hyaluronic acid produced (normal human fibroblasts; 5 mM): 199
- level of whitening (B16 melanoma cells; 0.1 mM): +
- change in cell mass volume (B16 melanoma cells; 0.1 mM): none
- level of whitening (B16 melanoma cells; 1 mM): ++
- change in cell mass volume (B16 melanoma cells; 1 mM): none
- level of whitening (B16 melanoma cells; 10 mM): ++
- change in cell mass volume (B16 melanoma cells; 10 mM): none
- melanin formation amount [1]: suppresses melanin formation at a low concentration
- ATP amount (average ATP amount without addition of sample is 100) ([2]; 0.20 μM): 120 ± 18
- ATP amount (average ATP amount without addition of sample is 100) ([2]; 0.39 μM): 146 ± 30***
- ATP amount (average ATP amount without addition of sample is 100) ([2]; 0.78 μM): 128 ± 8*
- ATP amount (average ATP amount without addition of sample is 100) ([2]; 1.56 μM): 133 ± 8**
- ATP amount (average ATP amount without addition of sample is 100) ([2]; 3.13 μM): 150 ± 20***
- ATP amount (average ATP amount without addition of sample is 100) ([2]; 6.25 μM): 155 ± 26***
- ATP amount (average ATP amount without addition of sample is 100) ([2]; 12.5 μM): 160 ± 7***
- ATP amount (average ATP amount without addition of sample is 100) ([2]; 25 μM): 153 ± 4***
- ATP amount (average ATP amount without addition of sample is 100) ([2]; 50 μM): 168 ± 13***
- ATP amount (average ATP amount without addition of sample is 100) ([2]; 100 μM): 164 ± 16***
- concentration at which a statistically significant ATP production promoting action was observed ([2]; Dunnett comparison with the group without addition): not less than 0.39 μM
